# Data from US20140275257A1, “N-ACETYL CYSTEINE COMPOSITIONS IN THE TREATMENT OF SYSTEMIC LUPUS ERYTHEMATOSUS” (Foundation for the State University of New York, priority 2013, published 2014).
# Tests used:
# mTOR [1] = experiment: mTOR activity by phosphorylation of S6 ribosomal protein (pS6-RP) in T-cell subsets; format: in vivo, human; details: for pS6-RPhi T cells in the DN T-cell compartment: baseline 22.5±3.7%
# Method: mTOR activity was assessed by phosphorylation of its downstream substrate S6 ribosomal protein (pS6-RP) using a monoclonal antibody to pS6-RP (Cell Signaling; Beverly, Mass.; Cat. No. 4851) in cells permeabilized with Cytofix/CytopermPlus (BD Biosciences). […] FIG. 4A: Assessment of pS6-RP in CD3^+, CD4^+, CD8^+, and DN T cells from control (blue histograms) and lupus donors (red histograms). Blue/red values show the percentage of cell populations with increased mTOR activity in control and lupus T-cell subsets, respectively. FIG. 4B: Cumulative analysis of mTOR activity in T-cell subsets of all lupus patients relative to all healthy controls. Values represent mean±SEM of cell populations with increased mTOR activity. p values reflect comparison of lupus and healthy donors with unpaired two-tailed t-test before treatment. FIG. 4C: Effect of NAC on mTOR activity measured by the prevalence of pS6-RP^hi T cells in lupus patients exposed to all doses considered together. p values reflect comparison to pre-treatment visit 1 using two-tailed paired t-test. FIG. 4D: Effect of NAC on CD3/CD28-induced mTOR activity in T cell subsets of lupus patients exposed to all doses considered together.
# SLE patients = experiment: SLE Disease Activity Index (SLEDAI) in NAC pilot study; format: in vivo, human
# Text: SLEDAI offers an assessment tool for assessing disease activity in SLE. Twenty-four features that are attributed to lupus are listed, with a weighted score given to any one that is present. The more serious manifestations (such as renal, neurologic, and vasculitis) are weighted more than others (such as cutaneous manifestations). The maximum possible score is 105. (Lam, G. K. W. and Petri, M., “Assessment of systemic lupus erthematosus,” Clin. Exp. Rheumatol., 23 (Supp. 39): S120-S132 (2005)).
# A complete physical examination of the cardiovascular, respiratory, gastrointestinal, musculoskeletal, neurological systems, skin, head, neck, sinuses, nasal and oral cavities were performed at each visit. SLE disease activity was assessed by using the British Isles Lupus Assessment Group (BILAG) (Isenberg, D. A. et al., “BILAG 2004. Development and initial validation of an updated version of the British Isles Lupus Assessment Group's disease activity index for patients with systemic lupus erythematosus,” Rheumatology 44(7): 902-906 (2005)) and SLE Disease Activity Index (SLEDAI) (Bombardier, C. et al., “Derivation of the SLEDAI. A disease activity index for lupus patients,” Arth. Rheum., 35: 630-640 (1992)). The concurrent use and dosage of prednisone and other medications were documented.
# Lupus disease activity was measured by SLEDAI and BILAG and fatigue was evaluated by FAC at baseline (visit 1) as well as monthly during a 3-month intervention (visits 2-4) and after a 1-month washout period (visit 5).
# Overall clinical effectiveness of NAC relative to placebo was analyzed with multilevel modeling as implemented in the STATA routine XTMIXED (from StataCorp, College Station, Tex.), with the three nested levels being drug group, subject within drug group and study visit within subject. All models included fixed effects for drug group, study visit and the drug group by study visit interaction along with random intercepts at each design level. […] The reduction in lupus disease activity SLEDAI scores was greater for the NAC than placebo group, as indicated by a significant visit by drug interaction (z=−2.14, p=0.033). The reduction in BILAG scores was also greater for NAC than placebo group. The overall effect was statistically significant as indicated by a significant visit by drug interaction (z=−2.62, p=0.009). Two tailed paired t-test was used to assess the effects of placebo and of each and all NAC doses on clinical indices and biomarkers recorded on visits 2-5 relative to visit 1; p<0.05 was considered significant. Patients and controls were compared with two-tailed unpaired t-test.
# mTOR [2] = experiment: CD3/CD28 stimulation-induced mTOR activity in normal PBL pretreated with NAC in vitro; format: cell-based, human; details: pretreatment by NAC in vitro (data not shown)
# Text: Δψm is subject to regulation by an oxidation-reduction equilibrium of ROI, pyridine nucleotides (NADH/NAD+NADPH/NADP) and GSH. (Fernandez, D. and Perl, A. “Metabolic control of T cell activation and death in SLE,” Autoimmun. Rev., 8: 184-189 (2009)). Without being bound by theory, it is believed that NAC can modulate mitochondrial hyperpolarization (MHP), directly, via neutralizing ROI or, indirectly, via sparing NADPH and promoting de novo GSH production. […] NAC-induced MHP occurred with a marked increase in NO production, which is required for mitochondrial biogenesis. (Nagy, G. et al., “Nitric Oxide-Dependent Mitochondrial Biogenesis Generates Ca^2+ Signaling Profile of Lupus T Cells,” J. Immunol., 173: 3676-3683 (2004)). In turn, NO production depends on the availability of NADPH. Without being bound by theory, it is believed that increased NO production can result from sparing of NADPH by NAC. (Fernandez, D. and Perl, A. “Metabolic control of T cell activation and death in SLE,” Autoimmun. Rev., 8: 184-189 (2009)). Without being bound by theory, NAC acts by blocking mTOR, which is a sensor of Δψm and oxidative stress in lupus T cells. (Fernandez, D. R. et al., “Activation of mTOR controls the loss of TCRζ □ in lupus T cells through HRES-1/Rab4-regulated lysosomal degradation,” J. Immunol., 182: 2063-2073 (2009)). […]
# [3] = test system: anti-double-stranded DNA, C3, and C4; experiment: Lupus-relevant laboratory tests (anti-double-stranded DNA, C3, C4); format: in vivo, human
# Text: Routine blood tests included complete blood count, liver and kidney function test, urinalysis and lupus-relevant laboratory tests, such as anti-double-stranded DNA, C3, and C4.
# mTOR [4] = molecular target: mTOR (Homo sapiens, UniProt P42345); details: O'Loghlen et al. (2006); cited from earlier work
smiles,measurement,setting,value
"CC(=O)N[C@@H](CS)C(=O)O [NAC, N-acetyl-L-cysteine]",pS6-RPhi T cells in the DN T-cell compartment,"mTOR [1]; after 2 months, p=0.0104",16.9±2.5%
same,pS6-RPhi T cells in the DN T-cell compartment,"mTOR [1]; after 3 months, p=0.0095",16.4±2.4%
same,pS6-RPhi T cells in the DN T-cell compartment,"mTOR [1]; after 4 months, p=0.0009",12.1±2.4%
same,CD3/CD28-induced mTOR activation,"mTOR [1]; all T cells after 2 months and 3 months, rebounded after washout",diminished
same,patients with significant improvement (SLEDAI),"SLE patients; Dose 1 group, placebo 2 of 9",3 of 9
same,patients with significant improvement (SLEDAI),"SLE patients; Dose 2 group, placebo 2 of 9",4 of 9
same,patients with significant improvement (SLEDAI),"SLE patients; Dose 3 group, improvements of SLEDAI of 3 or more, p=0.0406 relative to placebo",5 of 6
same,"effect on SLE disease activity, SLEDAI",SLE patients; NAC dose 1 (1.2 g/day),did not influence
same,SLEDAI,"SLE patients; NAC doses 2 and 3 combined, visit 2 (1 month), baseline 5.78, p=0.0007",3.6
same,SLEDAI,"SLE patients; NAC doses 2 and 3 combined, visit 3 (2 months), baseline 5.78, p=0.0009",4.0
same,SLEDAI,"SLE patients; NAC doses 2 and 3 combined, visit 4 (3 months), baseline 5.78, p=0.0030",4.9
same,SLEDAI,"SLE patients; NAC doses 2 and 3 combined, visit 5 (after 1 month washout), baseline 5.78, p=0.0046",4.4
same,SLEDAI,"SLE patients; all patients treated with NAC, after 1-month (visit 2), baseline 5.3, p=0.0013",3.5
same,SLEDAI,"SLE patients; all patients treated with NAC, after 2-month treatment (visit 3), baseline 5.3, p=0.048",3.7
same,reduction in SLEDAI relative to placebo (multilevel modeling),"SLE patients; visit by drug interaction, XTMIXED z=−2.14, p=0.033",greater in the NAC than placebo group
same,CD3/CD28 stimulation-induced mTOR activity,mTOR [2],blocking
same,C3,[3]; NAC-treated patients,not affected
same,C4,[3]; NAC-treated patients,not affected
same,Anti-DNA,"[3]; all NAC doses considered together, after 1 month, baseline 78.9±45.2 IU/ml, p=0.049",19.5±6.0 IU/ml
same,effect on mTOR in vitro,mTOR [4],inhibits
